Experimental findings from ChEMBL document CHEMBL4364319 (Eur J Med Chem, 2019) are described below.

Bounds are passed on as bounds.

Data set [1] deals with Dipeptidyl peptidase 9 (Homo sapiens, UniProt Q86TI2). Kind of data set: Inhibition of DPP9 (unknown origin) using Gly-Pro-AMC as substrate preincubated for 15 mins followed by substrate addition measured at 60 secs interval for 20 mins by fluorometic method.
The target of data set [2] is Dipeptidyl peptidase 8 (Homo sapiens, UniProt Q6V1X1). Briefly: Inhibition of DPP8 (unknown origin) using Gly-Pro-AMC as substrate preincubated for 15 mins followed by substrate addition measured at 60 secs interval for 20 mins by fluorometic method.
Sequence of Dipeptidyl peptidase 8 (Q6V1X1 whole entry): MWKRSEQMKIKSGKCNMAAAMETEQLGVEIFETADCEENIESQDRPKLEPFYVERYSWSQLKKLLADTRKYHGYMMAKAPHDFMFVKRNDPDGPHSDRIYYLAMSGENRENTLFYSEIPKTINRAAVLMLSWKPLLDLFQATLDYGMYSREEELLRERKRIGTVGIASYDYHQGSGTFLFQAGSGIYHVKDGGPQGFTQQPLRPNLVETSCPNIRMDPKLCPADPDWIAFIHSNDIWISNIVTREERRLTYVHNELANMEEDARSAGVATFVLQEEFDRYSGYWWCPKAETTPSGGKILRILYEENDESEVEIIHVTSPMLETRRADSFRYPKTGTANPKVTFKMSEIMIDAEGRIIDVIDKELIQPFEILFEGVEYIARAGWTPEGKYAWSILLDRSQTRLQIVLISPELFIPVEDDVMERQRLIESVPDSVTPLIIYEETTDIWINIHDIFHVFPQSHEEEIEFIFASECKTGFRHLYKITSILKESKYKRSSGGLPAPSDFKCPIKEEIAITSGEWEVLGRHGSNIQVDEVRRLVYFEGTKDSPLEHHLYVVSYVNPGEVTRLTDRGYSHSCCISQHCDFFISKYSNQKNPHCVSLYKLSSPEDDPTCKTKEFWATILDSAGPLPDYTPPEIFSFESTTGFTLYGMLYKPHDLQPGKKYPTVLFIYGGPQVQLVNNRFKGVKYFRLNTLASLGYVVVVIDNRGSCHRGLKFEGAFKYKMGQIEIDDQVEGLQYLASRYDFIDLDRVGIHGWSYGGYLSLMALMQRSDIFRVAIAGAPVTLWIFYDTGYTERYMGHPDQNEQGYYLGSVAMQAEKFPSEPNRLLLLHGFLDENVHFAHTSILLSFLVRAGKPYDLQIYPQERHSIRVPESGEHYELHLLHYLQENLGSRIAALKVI
Data set [3] can be described thus: Stability in Sprague-Dawley rat plasma assessed as compound remaining at 1 uM measured up to 120 mins by LC-MS/MS analysis relative to control. Type of data set: ADME, cell-free. Particulars: read-out: Stability.
Data set [4] in a line: Stability in Sprague-Dawley rat plasma assessed as drug degradation at 1 uM after 5 mins by LC-MS/MS analysis relative to control relative to control. Particulars: read-out: Drug degradation. Type of data set: ADME, cell-free.
A short description of data set [5]: Stability in Sprague-Dawley rat plasma assessed as drug degradation at 1 uM after 120 mins by LC-MS/MS analysis relative to control relative to control. Type of data set: ADME, cell-free. Particulars: read-out: Drug degradation.
Data set [6] can be described thus: Drug degradation in PBS at pH 7.4 at 1 uM after 120 mins by LC-MS/MS analysis relative to control. Type of data set: physicochemical. Particulars: read-out: Drug degradation.
Data set [7] is described as follows: Stability in PBS at pH 7.4 assessed as compound remaining at 1 uM after 120 mins by LC-MS/MS analysis relative to control. Particulars: read-out: Stability. Type of data set: physicochemical.
In data set [8] the test system is Rattus norvegicus. Kind of data set: Anti-diabetic activity in Sprague-Dawley rat assessed as redcution in DPP4 inhibition in plasma at 10 mg/kg, po via gavage administered as single dose measured up to 12 hrs post dose by fluorometric assay relative to control. Particulars: read-out: INH.
Data set [9] relates to Mus musculus. Kind of data set: Anti-diabetic activity in 8 hrs-fasted C57BL/6 db/db mouse assessed as reduction in blood glucose AUC (0 to 120 mins) at 10 mg/kg, po pretreated for 60 mins followed by glucose challenge and measured after 120 mins post glucose challenge by OGTT relative to control. Type of data set: functional. On the set-up: scale not given: the % may be the effect or the level left.

Data set [10] relates to Mus musculus. Kind of data set: Anti-diabetic activity in 12 hrs-fasted ICR mouse assessed as reduction in blood glucose AUC (0 to 120 mins)at 10 mg/kg, po pretreated for 60 mins followed by glucose challenge and measured after 120 mins post glucose challenge by OGTT relative to control. Type of data set: functional. On the set-up: scale not given: the % may be the effect or the level left.

Data set [11] relates to Mus musculus. Briefly: Anti-diabetic activity in db/db mouse assessed as reduction in blood glucose AUC (0 to 120 mins) at 10 mg/kg, po dosed once daily for 3 weeks following 12 hrs fasting and glucose challenge measured up to 120 mins relative to control. On the set-up: scale not given: the % may be the effect or the level left. Type of data set: functional.
A short description of data set [12]: Cytotoxicity against human LO2 cells assessed as cell viability at 10 uM after 48 hrs by MTT assay. Type of data set: cell-based, L02. Particulars: read-out: Activity.

Sequence of Dipeptidyl peptidase 9 (Q86TI2 whole entry): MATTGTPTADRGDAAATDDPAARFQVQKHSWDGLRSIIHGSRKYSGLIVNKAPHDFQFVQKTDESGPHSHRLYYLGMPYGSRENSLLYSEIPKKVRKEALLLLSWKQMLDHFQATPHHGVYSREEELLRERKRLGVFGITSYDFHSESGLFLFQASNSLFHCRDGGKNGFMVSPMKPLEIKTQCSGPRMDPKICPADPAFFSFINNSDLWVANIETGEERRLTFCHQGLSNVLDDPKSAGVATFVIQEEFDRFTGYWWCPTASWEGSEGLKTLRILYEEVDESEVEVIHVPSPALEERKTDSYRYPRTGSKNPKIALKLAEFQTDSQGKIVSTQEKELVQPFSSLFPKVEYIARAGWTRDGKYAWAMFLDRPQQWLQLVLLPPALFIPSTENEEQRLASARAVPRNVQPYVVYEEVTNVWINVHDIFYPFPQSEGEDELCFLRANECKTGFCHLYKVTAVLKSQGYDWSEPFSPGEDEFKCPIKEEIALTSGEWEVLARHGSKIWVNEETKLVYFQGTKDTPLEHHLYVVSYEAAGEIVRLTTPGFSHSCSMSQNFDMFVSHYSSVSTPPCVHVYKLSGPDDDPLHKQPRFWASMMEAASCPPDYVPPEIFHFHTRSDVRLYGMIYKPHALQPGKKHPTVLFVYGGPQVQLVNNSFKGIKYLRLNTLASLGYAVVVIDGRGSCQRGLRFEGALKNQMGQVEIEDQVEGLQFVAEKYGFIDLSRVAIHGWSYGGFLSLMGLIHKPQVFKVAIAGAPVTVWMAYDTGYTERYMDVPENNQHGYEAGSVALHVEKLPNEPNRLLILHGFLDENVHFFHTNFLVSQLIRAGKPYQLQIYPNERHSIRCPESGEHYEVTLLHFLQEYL

Usually IC50 stands for the point on the concentration scale where inhibition reaches its midpoint. For `CC#CCn1c(N2CCC[C@@H](N)C2)nc2c1c(=O)n(Cc1c(Cl)cccc1C(=O)OC)c(=O)n2C`, the IC50 in data set [1] and in [2] was more than 100 µM each time.

Consider `CC#CCn1c(N2CCC[C@@H](N)C2)nc2c1c(=O)n(Cc1ccc(Cl)cc1C(=O)OCc1oc(=O)oc1C)c(=O)n2C`, for which the remaining at 2 h, 1 µM was determined as 1.25% in data set [3] and 12% in data set [7]. Moreover, the metabolised at 5 min, 1 µM in data set [4] was 50%. Besides, in [5], the metabolised at 2 h, 1 µM amounted to 100%. Moreover, the degraded at 2 h, 1 µM in [6] amounted to 100%.

Take `CC#CCn1c(N2CCC[C@@H](N)C2)nc2c1c(=O)n(Cc1cccc(F)c1C(=O)O)c(=O)n2C`: the IC50 in data set [1] and in [2] was more than 100 µM throughout.

For the molecule `CC#CCn1c(N2CCC[C@@H](N)C2)nc2c1c(=O)n(Cc1ccc(F)cc1C(=O)O)c(=O)n2C`, the IC50 in data set [1] and in [2] was more than 100 µM each time.

`Cn1c(=O)cc(N2CCC[C@@H](N)C2)n(Cc2ccccc2C#N)c1=O` [ALOGLIPTIN]: the inhibition in vivo at 10 mg/kg in data set [8] is more than 80%. The values for the Activity in data set [9], in data set [10] and in [11] were 45%, 10.35% and 13.2%, respectively.

`CC#CCn1c(N2CCC[C@@H](N)C2)nc2c1c(=O)n(Cc1c(Cl)cccc1C(=O)O)c(=O)n2C`: the half-inhibitory concentration (IC50) in [1] and in [2] was more than 100 µM throughout.

For `COc1cccc2c1C(=O)c1c(O)c3c(c(O)c1C2=O)C[C@@](O)(C(=O)CO)C[C@@H]3O[C@H]1C[C@H](N)[C@H](O)[C@H](C)O1` [DOXORUBICIN], in data set [12], the viability at 48 h, 10 µM stood at 35%.

Consider `CC#CCn1c(N2CCC[C@@H](N)C2)nc2c1c(=O)n(Cc1cc(Cl)ccc1C(=O)OC)c(=O)n2C`, for which the concentration for half-maximal inhibition (IC50) in data set [1] and in data set [2] was more than 100 µM in each case.

Regarding `CC#CCn1c(N2CCC[C@@H](N)C2)nc2c1c(=O)n(Cc1cccc(F)c1C(=O)OC)c(=O)n2C`, the IC50 in data set [1] and in data set [2] was more than 100 µM throughout.

Turning to `CC#CCn1c(N2CCC[C@@H](N)C2)nc2c1c(=O)n(Cc1c(OC)cccc1C(=O)O)c(=O)n2C`, the IC50 in data set [1] and in data set [2] was more than 100 µM throughout.

Turning to `CC#CCn1c(N2CCC[C@@H](N)C2)nc2c1c(=O)n(Cc1cc(Br)ccc1C(=O)O)c(=O)n2C`, the IC50 in data set [1] and in [2] was more than 100 µM each time.
